Experimental findings from patent US11339171B2, “MDM2 inhibitors” (Gan & Lee Pharmaceuticals, priority 2017, dated 2022) are described below.

In experiment [1] the test system is human osteosarcoma cell line SJSA-1. Kind of experiment: Inhibition of proliferation of human osteosarcoma cell line SJSA-1 (DAPI staining, In Cell Analyzer). Conditions: for IC50: Homo sapiens, SJSA-1, 72 h, read-out: IC50 (nM), inhibitory activity on proliferation of human osteosarcoma cell line SJSA-1, SJSA-1, incubated 72 h; for inhibitory effect on human osteosarcoma cell line SJSA-1 compared with positive control compound HDM201: labels are Example numbers, the compounds with S-configuration are meant.

For experiment [2], the target named is T1, MDM2 (Homo sapiens, UniProt Q00987).
T1 construct: made in house
T1 sequence (Q00987 whole entry): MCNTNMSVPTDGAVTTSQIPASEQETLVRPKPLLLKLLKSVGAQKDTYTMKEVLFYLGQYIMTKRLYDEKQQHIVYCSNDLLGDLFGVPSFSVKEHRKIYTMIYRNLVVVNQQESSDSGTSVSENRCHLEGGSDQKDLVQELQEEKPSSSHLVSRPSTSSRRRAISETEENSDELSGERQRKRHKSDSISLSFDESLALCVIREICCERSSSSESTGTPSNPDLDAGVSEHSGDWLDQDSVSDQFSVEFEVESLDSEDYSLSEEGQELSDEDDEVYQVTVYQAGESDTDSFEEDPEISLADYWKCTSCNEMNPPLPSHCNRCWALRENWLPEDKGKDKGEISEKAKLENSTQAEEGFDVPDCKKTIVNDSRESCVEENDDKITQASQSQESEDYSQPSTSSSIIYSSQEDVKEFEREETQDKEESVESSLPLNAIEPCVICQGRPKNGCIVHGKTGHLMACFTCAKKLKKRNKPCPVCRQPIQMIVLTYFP
The experiment can be described thus: Inhibition test of MDM2-P53 (GST-MDM2, Biotin-P53, Anti-GST-Tb, SA-XL665). It counts as binding. Conditions: for inhibitory effect on MDM2 compared with positive control compound HDM201: labels are Example numbers, the compounds with S-configuration are meant. The gist of the method:
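HTRF-type assay using 4 nM GST-MDM2 (final), Biotin-P53, SA-XL665 and anti-GST-Tb in PBS with 0.1% BSA, 5 mM DTT and 1 mM AEBSF. Compounds in 5-fold serial dilutions over twelve points; incubation 90 min at 25° C with shaking before plate-reader read-out.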

In the case of `COc1cc(OC)c(-c2nc3c(n2C(C)C)[C@]2(C(=O)Nc4cc(Cl)ccc42)N(c2cccc(Cl)c2)C3=O)cn1` [Example R-115, (R)-6-chloro-5′-(3-chlorophenyl)-2′-(4,6-dimethoxypyridin-3-yl)-3′-isopropyl-3′H-spiro[dihydroindole-3,4′-pyrrolo[3,4-d]imidazole]-2,6′(5′H)-dione], the IC50 is 26.9 nM in experiment [1] and 0.269 µM in experiment [2].
Regarding `COc1ccccc1-c1nc2c(n1C(C)C)[C@@]1(C(=O)Nc3cc(Cl)ccc31)N(c1cc(Cl)c(=O)n(C)c1)C2=O` [Example S-53, (S)-6-chloro-5′-(5-chloro-1-methyl-6-oxo-1,6-dihydropyridin-3-yl)-3′-isopropyl-2′-(2-methoxyphenyl)-3′H-spiro[dihydroindole-3,4′-pyrrolo[3,4-d]imidazole]-2,6′(5′H)-dione], the IC50 was 213 nM in experiment [1] and 0.00084 µM in experiment [2].
Regarding `COc1ccc(CC(=O)N(C)C)cc1-c1nc2c(n1C(C)C)[C@]1(C(=O)Nc3cc(Cl)ccc31)N(c1cc(Cl)ccc1C)C2=O` [Example R-70, (R)-2-(3-(6-chloro-5′-(5-chloro-2-methylphenyl)-3′-isopropyl-2,6′-dioxo-5′,6′-dihydro-3′H-spiro[dihydroindole-3,4′-pyrrolo[3,4-d]imidazole]-2′-yl)-4-methoxyphenyl)-N,N-dimethylacetamide], the IC50 in experiment [1] was 4210 nM; in experiment [2], 0.111 µM.
The matching figures for `CCOc1ccc(-c2nc3c(n2C(C)C)[C@@]2(C(=O)Nc4cc(Cl)ccc42)N(c2cccc(Cl)c2)C3=O)c(OC)c1` [Example S-100, (S)-6-chloro-5′-(3-chlorophenyl)-2′-(4-ethoxy-2-methoxyphenyl)-3′-isopropyl-3′H-spiro[dihydroindole-3,4′-pyrrolo[3,4-d]imidazole]-2,6′(5′H)-dione]: 1210 nM and 0.00314 µM.
In the case of `COc1cc(OCC(F)F)ncc1-c1nc2c(n1C(C)C)C1(C(=O)Nc3cc(Cl)ccc31)N(c1cc(Cl)ccc1C)C2=O` (stereo not shown) [Example 153, 6-chloro-5′-(5-chloro-2-methylphenyl)-2′-(6-(2,2-difluoroethoxy)-4-methoxypyridin-3-yl)-3′-isopropyl-3′H-spiro[dihydroindole-3,4′-pyrrolo[3,4-d]imidazole]-2,6′(5′H)-dione], in experiment [1], the “inhibitory effect on human osteosarcoma cell line SJSA-1 compared with positive control compound HDM201” value is “better”. The “inhibitory effect on MDM2 compared with positive control compound HDM201” value in experiment [2] is on record as “better”.
For `COc1cc(C2CC2)ncc1-c1nc2c(n1C(C)C)C1(C(=O)Nc3cc(Cl)ccc31)N(c1cc(F)cc(Cl)c1)C2=O` (stereo not shown) [Example 176, 6-chloro-5′-(3-chloro-5-fluorophenyl)-2′-(6-cyclopropyl-4-methoxypyridin-3-yl)-3′-isopropyl-3′H-spiro[dihydroindole-3,4′-pyrrolo[3,4-d]imidazole]-2,6′(5′H)-dione], the “inhibitory effect on human osteosarcoma cell line SJSA-1 compared with positive control compound HDM201” value in experiment [1] is “better”. In experiment [2], the “inhibitory effect on MDM2 compared with positive control compound HDM201” value is “better”.
In the case of `CCOc1cc(OC)c(-c2nc3c(n2C(C)C)C2(C(=O)Nc4cc(Cl)ccc42)N(c2cc(F)cc(Cl)c2)C3=O)cn1` (stereo not shown) [Example 139, 6-chloro-5′-(3-chloro-5-fluorophenyl)-2′-(6-ethoxy-4-methoxypyridin-3-yl)-3′-isopropyl-3′H-spiro[dihydroindole-3,4′-pyrrolo[3,4-d]imidazole]-2,6′(5′H)-dione], in experiment [1], the “inhibitory effect on human osteosarcoma cell line SJSA-1 compared with positive control compound HDM201” value is given as “better”. Further, in experiment [2], the “inhibitory effect on MDM2 compared with positive control compound HDM201” value is given as “better”.
For `CCOc1ncc(-c2nc3c(n2C(C)C)[C@@]2(C(=O)Nc4cc(Cl)ccc42)N(c2cc(Cl)ccc2C)C3=O)c(OC)n1` [Example S-127, (S)-6-chloro-5′-(5-chloro-2-methylphenyl)-2′-(2-ethoxy-4-methoxypyrimidin-5-yl)-3′-isopropyl-3′H-spiro[dihydroindole-3,4′-pyrrolo[3,4-d]imidazole]-2,6′(5′H)-dione], the results for the IC50 in experiment [1] and in experiment [2] were 83.2 nM and 0.00276 µM, respectively.
In the case of `COc1ccccc1-c1nc2c(n1C(C)C)[C@]1(C(=O)Nc3cc(Cl)ccc31)N(c1cc(Cl)c(=O)n(C)c1)C2=O` [Example R-53, (R)-6-chloro-5′-(5-chloro-1-methyl-6-oxo-1,6-dihydropyridin-3-yl)-3′-isopropyl-2′-(2-methoxyphenyl)-3′H-spiro[dihydroindole-3,4′-pyrrolo[3,4-d]imidazole]-2,6′(5′H)-dione], the values for the IC50 in experiment [1] and in experiment [2] were 77400 nM and 3.77 µM, respectively.
Consider `COc1cc(OC)c(-c2nc3c(n2C(C)C)C2(C(=O)Nc4cc(Cl)ccc42)N(c2cc(Cl)cnc2C)C3=O)cn1` (stereo not shown) [Example 131, 6-chloro-5′-(5-chloro-2-methylpyridin-3-yl)-2′-(4,6-dimethoxypyridin-3-yl)-3′-isopropyl-3′H-spiro[dihydroindole-3,4′-pyrrolo[3,4-d]imidazole]-2,6′(5′H)-dione], for which the “inhibitory effect on human osteosarcoma cell line SJSA-1 compared with positive control compound HDM201” value in experiment [1] was “better”. Moreover, in experiment [2], the “inhibitory effect on MDM2 compared with positive control compound HDM201” value is recorded as “better”.
For the compound `COc1ncc(-c2nc3c(n2C(C)C)[C@]2(C(=O)Nc4cc(Cl)ccc42)N(c2ccc(F)c(Cl)c2)C3=O)c(OC)n1` [Example R-3, (R)-6-chloro-5′-(3-chloro-4-fluorophenyl)-2′-(2,4-dimethoxypyrimidin-5-yl)-3′-isopropyl-3′H-spiro[dihydroindole-3,4′-pyrrolo[3,4-d]imidazole]-2,6′(5′H)-dione], the figures for the IC50 in experiment [1] and in experiment [2] were 16300 nM and 1.19 µM, respectively.
The matching figures for `COc1ccc(-c2nc3c(n2C(C)C)[C@@]2(C(=O)Nc4cc(Cl)ccc42)N(c2cc(Cl)cn(C)c2=O)C3=O)c(OC)c1` [Example S-39, (S)-6-chloro-5′-(5-chloro-1-methyl-2-oxo-1,2-dihydropyridin-3-yl)-2′-(2,4-dimethoxyphenyl)-3′-isopropyl-3′H-spiro[dihydroindole-3,4′-pyrrolo[3,4-d]imidazole]-2,6′(5′H)-dione]: 1180 nM and 0.00393 µM.
In the same order, the values of `COc1cc(C(F)(F)F)ccc1-c1nc2c(n1C(C)C)[C@@]1(C(=O)Nc3cc(Cl)ccc31)N(c1cc(Cl)ccc1C)C2=O` [Example S-85, (S)-6-chloro-5′-(5-chloro-2-methylphenyl)-3′-isopropyl-2′-(2-methoxy-4-(trifluoromethyl)phenyl)-3′H-spiro[dihydroindole-3,4′-pyrrolo[3,4-d]imidazole]-2,6′(5′H)-dione] are 40.2 nM and 0.0033 µM.
In the same order, the values of `COc1cc(N(C)C)ccc1-c1nc2c(n1C(C)C)[C@]1(C(=O)Nc3cc(Cl)ccc31)N(c1cc(Cl)ccc1C)C2=O` [Example R-23, (R)-6-chloro-5′-(5-chloro-2-methylphenyl)-2′-(4-(dimethylamino)-2-methoxyphenyl)-3′-isopropyl-3′H-spiro[dihydroindole-3,4′-pyrrolo[3,4-d]imidazole]-2,6′(5′H)-dione] are 354 nM and 0.175 µM.
Regarding `COc1ncc(-c2nc3c(n2C(C)C)[C@@]2(C(=O)Nc4cc(Cl)ccc42)N(c2ccc(F)c(Cl)c2)C3=O)c(OC)n1` [Example S-3, (S)-6-chloro-5′-(3-chloro-4-fluorophenyl)-2′-(2,4-dimethoxypyrimidin-5-yl)-3′-isopropyl-3′H-spiro[dihydroindole-3,4′-pyrrolo[3,4-d]imidazole]-2,6′(5′H)-dione], the IC50 in experiment [1] came to 174 nM; in experiment [2], 0.00492 µM.
As for `COc1cc(C(F)(F)F)ncc1-c1nc2c(n1C(C)C)[C@@]1(C(=O)Nc3cc(Cl)ccc31)N(c1cc(Cl)cnc1C)C2=O` [Example S-152, (S)-6-chloro-5′-(5-chloro-2-methylpyridin-3-yl)-3′-isopropyl-2′-(4-methoxy-6-(trifluoromethyl)pyridine-3-yl)-3′H-spiro[dihydroindole-3,4′-pyrrolo[3,4-d]imidazole]-2,6′(5′H)-dione], the IC50 in experiment [1] is 79.8 nM; in experiment [2] it was 0.00078 µM.
For `COc1cc(C2CC2)ncc1-c1nc2c(n1C(C)C)[C@@]1(C(=O)Nc3cc(Cl)ccc31)N(c1cc(F)cc(Cl)c1)C2=O` [Example S-176, (S)-6-chloro-5′-(3-chloro-5-fluorophenyl)-2′-(6-cyclopropyl-4-methoxypyridin-3-yl)-3′-isopropyl-3′H-spiro[dihydroindole-3,4′-pyrrolo[3,4-d]imidazole]-2,6′(5′H)-dione], the results for the IC50 in experiment [1] and in experiment [2] were 28.8 nM and 0.00176 µM, respectively.
For the compound `COc1ncc(-c2cc3c(n2C(C)C)[C@]2(C(=O)Nc4cc(Cl)ccc42)N(c2cc(Cl)ccc2C)C3=O)c(OC)n1` [Example R-50, (R)-6-chloro-5′-(5-chloro-2-methylphenyl)-2′-(2,4-dimethoxypyrimidin-5-yl)-1′-isopropyl-1′H-spiro[dihydroindole-3,6′-pyrrolo[3,4-b]pyrrole]-2,4′(5′H)-dione], the figures for the IC50 in experiment [1] and in experiment [2] were 8430 nM and 20.4 µM, respectively.
Regarding `Cc1ccc(Cl)cc1N1C(=O)c2nc(-c3ccccc3OC(F)(F)F)n(C(C)C)c2[C@@]12C(=O)Nc1cc(Cl)ccc12` [Example S-31, (S)-6-chloro-5′-(5-chloro-2-methylphenyl)-3′-isopropyl-2′-(2-(trifluoromethoxy)phenyl)-3′H-spiro[dihydroindole-3,4′-pyrrolo[3,4-d]imidazole]-2,6′(5′H)-dione], the IC50 was determined as 1580 nM in experiment [1] and 0.0601 µM in experiment [2].
In the same order, the values of `COc1cc(N(C)C)ncc1-c1nc2c(n1C(C)C)[C@@]1(C(=O)Nc3cc(Cl)ccc31)N(c1cc(Cl)ccc1C)C2=O` [Example S-111, (S)-6-chloro-5′-(5-chloro-2-methylphenyl)-2′-(6-(dimethylamino)-4-methoxypyridin-3-yl)-3′-isopropyl-3′H-spiro[dihydroindole-3,4′-pyrrolo[3,4-d]imidazole]-2,6′(5′H)-dione] are 13 nM and 0.00152 µM.
